The conditions of series [1]: subcutaneous dosing of the free drug, humanized mice; cited from earlier work.
The nature of series [2]: Intravenous TAF pharmacokinetic mouse study (plasma, PBMC, tissue homogenate). It counts as in vivo, C57BL/6 J mice. As to conditions: female, C57BL/6 J, mouse, iv, 0.5 mg. The protocol: C57BL/6 J Mice (9 groups of 4 animals each; 36 mice total) were administered the study product (0.5 mg dose, 0.1 mL) by intravenous (IV) injection. Animals (N = 4) were sacrificed at the following timepoints: Day 1 (1, 3, 6, 12, 24 h), Day 2, 4, 8, and 14. Blood was collected by exsanguination along with select tissue specimens (vide infra).
The isolation of plasma and PBMCs from blood samples was carried out in a laminar flow hood using aseptic techniques, and the entire process was completed in under 45 min to minimize analyte metabolism. Blood was transferred into collection tubes containing sodium citrate (final concentration, 0.4% w/v), diluted using one volume equivalent of 1 × PBS solution, and mixed by inversion. The minimum final volume was 4.0 mL. Prior to the addition of blood samples, Ficoll-Paque media (MilliporeSigma, Burlington, MA, 3.2 mL) was transferred into a 12 mL LeucoSep tube (Greiner, Monroe, NC) and centrifuged at 1000 g for 20 s at room temperature, causing the media to settle just below the porous barrier. The homogenous, diluted blood-PBS mixture was transferred into the prepared LeucoSep tube and centrifuged at 1000 g for 10 min at room temperature, resulting in the formation of three layers above the porous barrier: (A) top layer, consisting of the plasma fraction; (B) middle, interface layer, containing the PBMCs; and (C) thin lower layer, just above the barrier, consisting of Ficoll-Paque media. Layer A (plasma) was transferred to empty 1.5 mL microfuge tubes in 0.5 mL aliquots, and flash-frozen in liquid nitrogen. Layer B (PBMCs) was transferred into an empty 15 mL centrifuge tube and PBS added to the 12 mL mark, followed by gentle inversion mixing. The suspension was centrifuged at 400 g for 15 min, the supernatant removed, and the pellet resuspended in PBS (10 mL) by gentle pipetting. An aliquot (10 µL) was removed from the suspension for cell counting and the remaining sample was centrifuged at 400 g for 15 min. The supernatant was removed without disturbing the cell pellet, which was treated with ice-cold 70% v/v methanol in molecular-grade water (1.0 mL). The mixture was mixed lightly by vortex agitation to lyse the cells, followed by transfer to a 2.0 mL cryovial that was flash-frozen in liquid nitrogen.
Vaginal, rectal, spleen, and thymus tissue samples were collected from sacrificed animals at Day 1 (12, 24 h), Day 4, and 8; rectal tissue samples were not collected at 12 h. The samples were transferred into pre-weighed sample tubes, weighed, and flash-frozen in liquid nitrogen.
PBMC results were normalized to the number of cells and reported as fmol/10^6 cells or as intracellular concentration based on cell volume, in nM. Tissue results were normalized to sample mass and reported as ng mg^-1 or fmol mg^-1.

A short description of series [3]: Compartmental PK model, IV and SQ co-modeling. Format: in vivo, C57BL/6 J mice. The note with it: mouse. The source says:
The results of the simultaneous model (co-model) are summarized in Table 2, and the parameters were used in subsequent simulation exercises (vide infra).
The change in amount over time within each compartment was related to the difference in the input into the compartment (e.g., the Dose × F × Ka term into compartment C1) and the output from the compartment (e.g., the Concentration × Kout term for compartment Ccell). Two compartments –plus a dosing compartment– best described TFV plasma PKs.
A third compartment was used to model the PKs of PBMC TFV-DP concentrations. Intracellular PKs of TFV-DP were linked to the plasma TFV concentration via saturable uptake (Vmax and Km) with maximum velocity of uptake and first order elimination kinetics, Kout. […] C1 is the central compartment, representing the TFV plasma concentration in the body. The second compartment C2 represents the peripheral tissues, and the cellular compartment Ccell represents the concentrations of TFV-DP in PBMCs. Parameters CLp and Vp describe clearance and volume of the peripheral compartment (C2) and Ka and CL are the rates of TFV uptake and clearance into/out of the central compartment (C1), respectively. […] The physiological PBMC volume was assumed to be 7.55 × 10^–7 L/10^6 cells, to remain consistent with Duwal et al.[44] for the model analysis, while all other parameters were estimated in the model. The ordinary differential equations (Eqs. 1–3) used in the final model are presented below:1 d/dtC1t=F·Ka·Dt/V-C1t·CL/V-CLp/V·C1t+CLp/Vp·C2t 2 d/dtC2t=[…] 3 d/dtCcellt=Vmax·C1t/Km-Ccellt·Kout
Compartmental analyses were performed in Phoenix software (version 8.3, Certara, Princeton, NJ) using a published, simple, structural PK model describing the TFV kinetics. IV and SQ data were modeled simultaneously. Due to the destructive nature of the blood sampling, data were modeled using a naïve-pooled algorithm, without inter-animal variability. The resulting systemic parameters, along with the implant in vivo release rates on a per animal basis, were used to co-model (predict) concentration data in mice following during implant dosing.

The values that follow come from publication PMC9114338 (Scientific Reports, 2022).

Each structure is given as a SMILES string.

In the case of `C[C@H](Cn1cnc2c(N)ncnc21)OCP(=O)(O)O` [TFV, tenofovir], the “Plasma TFV t1/2” value in series [1] is recorded as 14 h. The half-life in series [2] (rectal tissue, read-out: Terminal half-life in rectal tissue (NCA) (converted)) is 43 h; in series [2] (spleen, read-out: Terminal half-life in spleen (NCA) (converted)), 30.5 h; in series [2] (thymus, read-out: Terminal half-life in thymus (NCA) (converted)), 20.1 h; in series [2] (vaginal tissue, read-out: Terminal half-life in vaginal tissue (NCA) (converted)) it was 39.1 h; in series [3] (C57BL/6 J, plasma, other: intravenous and subcutaneous injection, co-modelled, 0.5 mg, IV and SQ co-modeling, read-out: Elimination half-life t1/2, plasma TFV (converted)), 53 h; in series [3] (C57BL/6 J, plasma, other: intravenous and subcutaneous injection, co-modelled, 0.5 mg, IV and SQ co-modeling, read-out: t1/2, elimination half-life, plasma TFV (converted)), 52.8 h. Also, the clearance in series [3] (C57BL/6 J, plasma, other: intravenous and subcutaneous injection, co-modelled, 0.5 mg, IV and SQ co-modeling, read-out: CL, total body clearance (converted)) is 4.48 mL/min. In series [3] (C57BL/6 J, plasma, other: intravenous and subcutaneous injection, co-modelled, 0.5 mg, IV and SQ co-modeling, read-out: V, volume of distribution of the central compartment), the Vd was 4.59 L. Further, in series [3] (in vivo), the “Vmax/Km as share of the non-saturable clearance” value was determined as 2%.
